According to PubChem BioAssay (NCI):
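Following 48 hours of exposure in 96-well plates, responses at five concentrations were used to interpolate endpoints linearly. TGI: concentration producing complete growth inhibition.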

Columns and labels:
Test in all cases: inhibition of tumour cell growth, NCI panel, 48 h
SNB-75 CNS = test system: SNB-75 CNS
OVCAR-3 ovarian = test system: OVCAR-3 ovarian
COLO 205 colon = test system: COLO 205 colon
SK-MEL-28 melanoma = test system: SK-MEL-28 melanoma
NCI-H23 lung = test system: NCI-H23 lung
NCI/ADR-RES ovarian = test system: NCI/ADR-RES ovarian
LOX IMVI melanoma = test system: LOX IMVI melanoma
U251 CNS = test system: U251 CNS
SF-295 CNS = test system: SF-295 CNS
HT29 colon = test system: HT29 colon
BT-549 breast = test system: BT-549 breast
KM12 colon = test system: KM12 colon
OVCAR-8 ovarian = test system: OVCAR-8 ovarian
MOLT-4 leukemia = test system: MOLT-4 leukemia
CAKI-1 renal = test system: CAKI-1 renal
RXF 393 renal = test system: RXF 393 renal
SK-MEL-2 melanoma = test system: SK-MEL-2 melanoma
K-562 leukemia = test system: K-562 leukemia
DU-145 prostate = test system: DU-145 prostate
NCI-H522 lung = test system: NCI-H522 lung
RPMI-8226 leukemia = test system: RPMI-8226 leukemia
HOP-92 NSCLC = test system: HOP-92 NSCLC
HL-60(TB) leukemia = test system: HL-60(TB) leukemia
HCC-2998 colon = test system: HCC-2998 colon
IGROV1 ovarian = test system: IGROV1 ovarian
UO-31 renal = test system: UO-31 renal
PC-3 prostate = test system: PC-3 prostate
HS 578T breast = test system: HS 578T breast
MDA-MB-435 = test system: MDA-MB-435
UACC-62 melanoma = test system: UACC-62 melanoma
MDA-N = test system: MDA-N
NCI-H460 lung = test system: NCI-H460 lung
SF-268 CNS = test system: SF-268 CNS
UACC-257 melanoma = test system: UACC-257 melanoma
SN12C renal = test system: SN12C renal
M14 melanoma = test system: M14 melanoma
SK-MEL-5 melanoma = test system: SK-MEL-5 melanoma
MDA-MB-231 breast = test system: MDA-MB-231 breast
MCF7 breast = test system: MCF7 breast
HCT-15 colon = test system: HCT-15 colon
OVCAR-5 ovarian = test system: OVCAR-5 ovarian
HCT-116 colon = test system: HCT-116 colon
SW-620 colon = test system: SW-620 colon
TK-10 renal = test system: TK-10 renal
EKVX NSCLC = test system: EKVX NSCLC
SF-539 CNS = test system: SF-539 CNS
HOP-62 NSCLC = test system: HOP-62 NSCLC
MALME-3M melanoma = test system: MALME-3M melanoma
SNB-19 CNS = test system: SNB-19 CNS
A498 renal = test system: A498 renal
ACHN renal = test system: ACHN renal
SK-OV-3 ovarian = test system: SK-OV-3 ovarian
T-47D breast = test system: T-47D breast
A549 NSCLC = test system: A549 NSCLC
786-0 renal = test system: 786-0 renal
CCRF-CEM leukemia = test system: CCRF-CEM leukemia
OVCAR-4 ovarian = test system: OVCAR-4 ovarian
NCI-H226 lung = test system: NCI-H226 lung

With `C[C@]12CC[C@@H]3c4ccc(OP(=O)(O)O)cc4CC[C@H]3[C@@H]1CCC2=O` the TGI (SNB-75 CNS) was greater than 100 µM, the TGI (OVCAR-3 ovarian) was greater than 100 µM and the TGI (COLO 205 colon) was greater than 100 µM. For the same molecule, the TGI (SK-MEL-28 melanoma) was greater than 100 µM, the TGI (NCI-H23 lung) was greater than 100 µM and the TGI (NCI/ADR-RES ovarian) was greater than 100 µM. The TGI (LOX IMVI melanoma) was greater than 100 µM, the TGI (U251 CNS) was greater than 100 µM and the TGI (SF-295 CNS) was greater than 100 µM. It also gave a TGI (HT29 colon) greater than 100 µM, a TGI (BT-549 breast) greater than 100 µM and a TGI (KM12 colon) greater than 100 µM. The TGI (OVCAR-8 ovarian) was greater than 100 µM, the TGI (MOLT-4 leukemia) was greater than 100 µM and the TGI (CAKI-1 renal) was greater than 100 µM. The TGI (RXF 393 renal) was greater than 100 µM, the TGI (SK-MEL-2 melanoma) was greater than 100 µM and the TGI (K-562 leukemia) was greater than 100 µM. It also gave a TGI (DU-145 prostate) greater than 100 µM, a TGI (NCI-H522 lung) greater than 100 µM and a TGI (RPMI-8226 leukemia) greater than 100 µM. The TGI (HOP-92 NSCLC) was greater than 100 µM, the TGI (HL-60(TB) leukemia) was greater than 100 µM and the TGI (HCC-2998 colon) was greater than 100 µM. For the same molecule, the TGI (IGROV1 ovarian) was greater than 100 µM, the TGI (UO-31 renal) was greater than 100 µM and the TGI (PC-3 prostate) was greater than 100 µM. It also gave a TGI (HS 578T breast) greater than 100 µM, a TGI (MDA-MB-435) greater than 100 µM and a TGI (UACC-62 melanoma) greater than 100 µM. For the same molecule, the TGI (MDA-N) was greater than 100 µM, the TGI (NCI-H460 lung) was greater than 100 µM and the TGI (SF-268 CNS) was greater than 100 µM. It also gave a TGI (UACC-257 melanoma) greater than 100 µM, a TGI (SN12C renal) greater than 100 µM and a TGI (M14 melanoma) greater than 100 µM. For the same molecule, the TGI (SK-MEL-5 melanoma) was 69.2 µM, the TGI (MDA-MB-231 breast) was greater than 100 µM and the TGI (MCF7 breast) was greater than 100 µM. For the same molecule, the TGI (HCT-15 colon) was greater than 100 µM, the TGI (OVCAR-5 ovarian) was greater than 100 µM and the TGI (HCT-116 colon) was greater than 100 µM. For the same molecule, the TGI (SW-620 colon) was greater than 100 µM, the TGI (TK-10 renal) was greater than 100 µM and the TGI (EKVX NSCLC) was greater than 100 µM. The TGI (SF-539 CNS) was greater than 100 µM, the TGI (HOP-62 NSCLC) was greater than 100 µM and the TGI (MALME-3M melanoma) was greater than 100 µM. It also gave a TGI (SNB-19 CNS) greater than 100 µM, a TGI (A498 renal) greater than 100 µM and a TGI (ACHN renal) greater than 100 µM. The TGI (SK-OV-3 ovarian) was greater than 100 µM, the TGI (T-47D breast) was greater than 100 µM and the TGI (A549 NSCLC) was greater than 100 µM. The TGI (786-0 renal) was greater than 100 µM, the TGI (CCRF-CEM leukemia) was greater than 100 µM and the TGI (OVCAR-4 ovarian) was greater than 100 µM.

`Cn1c(=S)[nH]c2sc3c(c2c1=O)CCSC3` gave a TGI (SNB-75 CNS) greater than 100 µM, a TGI (OVCAR-3 ovarian) of 61 µM and a TGI (COLO 205 colon) greater than 100 µM. The TGI (NCI-H23 lung) was greater than 100 µM, the TGI (NCI/ADR-RES ovarian) was greater than 100 µM and the TGI (LOX IMVI melanoma) was greater than 100 µM. The TGI (U251 CNS) was greater than 100 µM, the TGI (SF-295 CNS) was 97.3 µM and the TGI (HT29 colon) was greater than 100 µM. The TGI (BT-549 breast) was greater than 100 µM, the TGI (KM12 colon) was greater than 100 µM and the TGI (OVCAR-8 ovarian) was greater than 100 µM. For the same molecule, the TGI (MOLT-4 leukemia) was greater than 100 µM, the TGI (CAKI-1 renal) was greater than 100 µM and the TGI (RXF 393 renal) was 14.7 µM. For the same molecule, the TGI (SK-MEL-2 melanoma) was greater than 100 µM, the TGI (K-562 leukemia) was greater than 100 µM and the TGI (DU-145 prostate) was 57.1 µM. For the same molecule, the TGI (NCI-H522 lung) was greater than 100 µM, the TGI (NCI-H226 lung) was 88.6 µM and the TGI (RPMI-8226 leukemia) was greater than 100 µM. The TGI (HOP-92 NSCLC) was greater than 100 µM, the TGI (HL-60(TB) leukemia) was 43.3 µM and the TGI (HCC-2998 colon) was greater than 100 µM. For the same molecule, the TGI (IGROV1 ovarian) was greater than 100 µM, the TGI (UO-31 renal) was 25.8 µM and the TGI (PC-3 prostate) was greater than 100 µM. The TGI (HS 578T breast) was greater than 100 µM, the TGI (MDA-MB-435) was greater than 100 µM and the TGI (UACC-62 melanoma) was greater than 100 µM. It also gave a TGI (MDA-N) greater than 100 µM, a TGI (NCI-H460 lung) greater than 100 µM and a TGI (SF-268 CNS) greater than 100 µM. It also gave a TGI (UACC-257 melanoma) greater than 100 µM, a TGI (SN12C renal) greater than 100 µM and a TGI (M14 melanoma) greater than 100 µM. For the same molecule, the TGI (SK-MEL-5 melanoma) was greater than 100 µM, the TGI (MDA-MB-231 breast) was greater than 100 µM and the TGI (MCF7 breast) was greater than 100 µM. It also gave a TGI (HCT-15 colon) greater than 100 µM, a TGI (OVCAR-5 ovarian) greater than 100 µM and a TGI (HCT-116 colon) greater than 100 µM. For the same molecule, the TGI (SW-620 colon) was greater than 100 µM, the TGI (TK-10 renal) was greater than 100 µM and the TGI (EKVX NSCLC) was 85.4 µM. The TGI (SF-539 CNS) was greater than 100 µM, the TGI (HOP-62 NSCLC) was 66.3 µM and the TGI (MALME-3M melanoma) was greater than 100 µM. It also gave a TGI (SNB-19 CNS) greater than 100 µM, a TGI (A498 renal) greater than 100 µM and a TGI (ACHN renal) greater than 100 µM. For the same molecule, the TGI (SK-OV-3 ovarian) was greater than 100 µM, the TGI (T-47D breast) was 90.2 µM and the TGI (A549 NSCLC) was greater than 100 µM. The TGI (786-0 renal) was greater than 100 µM and the TGI (OVCAR-4 ovarian) was greater than 100 µM.

Molecule `N#CC12C(=O)N3C(=NC(c4ccccc4)NC3c3ccccc3)C1(C#N)C(c1ccccc1)NC1=C2CCC1` (stereo not given) has a TGI (SNB-75 CNS) greater than 100 µM, a TGI (OVCAR-3 ovarian) greater than 100 µM and a TGI (COLO 205 colon) greater than 100 µM. The TGI (SK-MEL-28 melanoma) was greater than 100 µM, the TGI (NCI-H23 lung) was greater than 100 µM and the TGI (NCI/ADR-RES ovarian) was greater than 100 µM. For the same molecule, the TGI (LOX IMVI melanoma) was greater than 100 µM, the TGI (U251 CNS) was greater than 100 µM and the TGI (SF-295 CNS) was greater than 100 µM. It also gave a TGI (HT29 colon) greater than 100 µM, a TGI (BT-549 breast) greater than 100 µM and a TGI (KM12 colon) greater than 100 µM. It also gave a TGI (OVCAR-8 ovarian) greater than 100 µM, a TGI (MOLT-4 leukemia) greater than 100 µM and a TGI (CAKI-1 renal) greater than 100 µM. The TGI (RXF 393 renal) was greater than 100 µM, the TGI (SK-MEL-2 melanoma) was greater than 100 µM and the TGI (K-562 leukemia) was greater than 100 µM. It also gave a TGI (DU-145 prostate) greater than 100 µM, a TGI (NCI-H522 lung) greater than 100 µM and a TGI (NCI-H226 lung) greater than 100 µM. For the same molecule, the TGI (RPMI-8226 leukemia) was greater than 100 µM, the TGI (HOP-92 NSCLC) was greater than 100 µM and the TGI (HL-60(TB) leukemia) was greater than 100 µM. For the same molecule, the TGI (HCC-2998 colon) was greater than 100 µM, the TGI (IGROV1 ovarian) was greater than 100 µM and the TGI (UO-31 renal) was greater than 100 µM. The TGI (PC-3 prostate) was greater than 100 µM, the TGI (HS 578T breast) was greater than 100 µM and the TGI (MDA-MB-435) was greater than 100 µM. For the same molecule, the TGI (UACC-62 melanoma) was greater than 100 µM, the TGI (MDA-N) was greater than 100 µM and the TGI (NCI-H460 lung) was greater than 100 µM. The TGI (SF-268 CNS) was greater than 100 µM, the TGI (UACC-257 melanoma) was greater than 100 µM and the TGI (SN12C renal) was greater than 100 µM. For the same molecule, the TGI (M14 melanoma) was greater than 100 µM, the TGI (SK-MEL-5 melanoma) was greater than 100 µM and the TGI (MDA-MB-231 breast) was greater than 100 µM. It also gave a TGI (MCF7 breast) greater than 100 µM, a TGI (HCT-15 colon) greater than 100 µM and a TGI (OVCAR-5 ovarian) greater than 100 µM. For the same molecule, the TGI (HCT-116 colon) was greater than 100 µM, the TGI (SW-620 colon) was greater than 100 µM and the TGI (TK-10 renal) was greater than 100 µM. The TGI (EKVX NSCLC) was greater than 100 µM, the TGI (HOP-62 NSCLC) was greater than 100 µM and the TGI (MALME-3M melanoma) was greater than 100 µM. It also gave a TGI (SNB-19 CNS) greater than 100 µM, a TGI (A498 renal) greater than 100 µM and a TGI (ACHN renal) greater than 100 µM. For the same molecule, the TGI (SK-OV-3 ovarian) was greater than 100 µM, the TGI (T-47D breast) was greater than 100 µM and the TGI (A549 NSCLC) was greater than 100 µM. It also gave a TGI (786-0 renal) greater than 100 µM, a TGI (CCRF-CEM leukemia) greater than 100 µM and a TGI (OVCAR-4 ovarian) greater than 100 µM.
